Common to all, as to assay type: in vivo
The test system of assay [1] is hypersecretion. The experiment in a line: Anti-secretory activity test (Shay et al). Also on record: key to Anti-secretory, % change in Vol.: NS: Not Significant. The conditions noted are these: for change in vivo at 30 mg/kg / change in vivo at 10 mg/kg: read-out: Anti-secretory, % change in Vol.; for change in vivo at 30 mg/kg / Anti-secretory, % change in Vol.: 30 mg/kg. As for the experimental part: (§1) Anti-ulcer activity was determined by the stress-induced erosion test of Senay & Levine, Proc. Soc. Exp. Biol. Med., 124, 1221-1223 (1967) and anti-secretory activity by the test of H. Shay, D. Sun and H. Greenstin, Gastroenterology, 1954, 26, 903-913 as exemplified by Beattie et al J. Med. Chem., 20, 714 (1977). […] However, some compounds show activity in tests for anti-hypertensive activity.

For assay [2], the system named is male spontaneously hypertensive rats. As to the kind of experiment: Antihypertensive activity, Procedure A: systolic pressure of spontaneously hypertensive rats. As for the experimental part: Systolic pressure of male spontaneously hypertensive rats is measured by an indirect technique using the Decker Caudal Plethysmograph or other appropriate sensor. Groups usually consist of 4 rats. Drugs are usually administered orally. Pressures are usually read prior to drug administration and at 1.5, 4 and 24 hours thereafter. This schedule may be altered depending upon the behaviour of the drug.

Assay [3] deals with stress-induced erosion. As to the kind of experiment: Stress-induced erosion test (Senay & Levine), anti-ulcer activity. Here is the method:
as §1

As to `C[n+]1ccccc1SCC=Cc1ccccc1` [Example 16, 2-Cinnamylthio-1-methylpyridinium bromide], the change in vivo at 30 mg/kg in assay [1] is -55%.
For `C[n+]1ccccc1SC(c1ccccc1)c1ccccc1` [Example 39, 2-((Diphenylmethyl)thio)-1-methyloyridinium bromide], the “Anti-secretory, % change in Vol.” value in assay [1] is reported as “NS”. Further, the “Antihypertensive activity (Procedure A)” value in assay [2] (50 mg/kg orally) is “showed activity”.
For `Cc1cccc(CSc2cccc[n+]2C)c1` [Example 25, 1-Methyl-2-((3-methylbenzyl)thio)pyridinium chloride], in assay [3], testing at 30 mg/kg gave an inhibition in vivo of 75% and testing at 100 mg/kg gave an inhibition in vivo of 80%. Besides, the change in vivo at 30 mg/kg in assay [1] is -69%.
`C[n+]1ccccc1SCCCCc1ccccc1` [Example 40, 1-Methyl-2-((4-phenylbutyl)thio)pyridinium bromide] registered an inhibition in vivo at 100 mg/kg in assay [3] of 67%. Besides, in assay [1], the change in vivo at 30 mg/kg is -36%.
`CC(CSc1cccc[n+]1C)c1ccccc1` (stereo not drawn) [Example 9, 1-Methyl-2-(2-phenylpropylthio)pyridinium bromide]: the change in vivo at 30 mg/kg in assay [1] was -32%.
`c1ccc(CSc2ccccn2)cc1` [Example 38, 2-((Benzyl)thio)pyridine]: in assay [1], the change in vivo at 30 mg/kg is -32%.
`C[n+]1ccccc1SCc1ccc(Cl)c(Cl)c1` [Example 4, 2-(3,4-Dichlorobenzylthio)-1-methylpyridinium chloride]: 100 mg/kg produced 67% inhibition in vivo in assay [3]. The change in vivo at 30 mg/kg in assay [1] is -45%. In addition, the “Antihypertensive activity (Procedure A)” value in assay [2] (75 mg/kg orally) is reported as “showed activity”.
Turning to `C[n+]1ccccc1SCc1ccc(OCc2ccccc2)cc1` [Example 14, 2-(((4-Benzyloxy)benzyl)thio)-1-methylpyridinium chloride], testing at 10 mg/kg in assay [3] (10 mg/kg) gave an inhibition in vivo of 60%. In addition, in assay [3], the inhibition in vivo at 30 mg/kg was 73% and at 100 mg/kg the inhibition in vivo was 90%. Besides, in assay [1], the change in vivo at 10 mg/kg is -19% and the change in vivo at 30 mg/kg was -49%.
On to `C[n+]1ccccc1SCc1ccc(Cl)cc1` [Example 3, 2-(4-Chlorobenzylthio)-1-methylpyridinium chloride], for which the inhibition in vivo at 100 mg/kg in assay [3] came to 83%. In addition, the change in vivo at 30 mg/kg in assay [1] was -77%. Moreover, the “Antihypertensive activity (Procedure A)” value in assay [2] (75 mg/kg orally) was “inactive”.
Consider `C[n+]1ccccc1SCc1cccc(I)c1` [Example 35, 2-((3-Iodobenzyl)thio)-1-methylpyridinium chloride], for which testing at 100 mg/kg in assay [3] gave an inhibition in vivo of 67%. For the same molecule, the change in vivo at 30 mg/kg in assay [1] was -41%.
In assay [3], `Cc1ccc(CSc2cccc[n+]2C)cc1C` [Example 8, 1-Methyl-2-(3,4-dimethylbenzylthio)pyridinium chloride] came in with an inhibition in vivo at 30 mg/kg of 70% and an inhibition in vivo at 100 mg/kg of 62%. Further, the “Anti-secretory, % change in Vol.” value in assay [1] is reported as “NS”.
As to `C[n+]1ccccc1SCc1ccccc1Cl` [Example 27, 2-((2-Chlorobenzyl)thio)-1-methylpyridinium chloride], in assay [1], the change in vivo at 10 mg/kg was -39% and the change in vivo at 30 mg/kg is -66%.
For the molecule `C[n+]1ccccc1SCCCc1ccccc1` [Example 7, 1-Methyl-2-(3-phenylpropylthio)pyridinium bromide], the inhibition in vivo at 100 mg/kg in assay [3] was 77%. In addition, the “Anti-secretory, % change in Vol.” value in assay [1] is “NS”.
In assay [3], `C[n+]1ccc(SCc2ccccc2)cc1` [Example 23, 4-Benzylthio-1-methylpyridinium bromide] registered an inhibition in vivo at 30 mg/kg of 70% and an inhibition in vivo at 100 mg/kg of 80%. Moreover, the “Anti-secretory, % change in Vol.” value in assay [1] is “NS”.
For the molecule `c1ccc(CSc2cccc[n+]2Cc2ccccc2)cc1` [Example 45, 1-Benzyl-2-(benzylthio)pyridinium bromide], the change in vivo at 30 mg/kg in assay [1] was -75%.
In the case of `COc1ccc(CSc2cccc[n+]2C)cc1` [Example 26, 2-((4-Methoxybenzyl)thio)-1-methylpyridinium chloride], the change in vivo at 30 mg/kg in assay [1] is -46%.
For the molecule `C[n+]1ccccc1SCc1cccc(C(F)(F)F)c1` [Example 37, 1-Methyl-2-((3-trifluoromethylbenzyl)thio)pyridinium chloride], the “Anti-secretory, % change in Vol.” value in assay [1] is given as “NS”. Also, in assay [2] (50 mg/kg orally), the “Antihypertensive activity (Procedure A)” value was “showed activity”.
Turning to `C[n+]1ccccc1SCc1cccc(F)c1` [Example 22, 2-((-3-Fluorobenzyl)thio)-1-methylpyridinium chloride], in assay [3], testing at 30 mg/kg gave an inhibition in vivo of 64% and the inhibition in vivo at 100 mg/kg is 72%. In addition, the change in vivo at 30 mg/kg in assay [1] was -69%.
In assay [3], `C[n+]1ccccc1SCCc1ccccc1` [Example 2, 1-Methyl-2-(2-phenylethylthio) pyridinium bromide] displayed an inhibition in vivo at 30 mg/kg of 83% and an inhibition in vivo at 100 mg/kg of 67%. In assay [1], the change in vivo at 10 mg/kg was -20% and the change in vivo at 30 mg/kg was -56%. In addition, the “Antihypertensive activity (Procedure A)” value in assay [2] (75 mg/kg orally) is recorded as “showed activity”.
In assay [3], `C[n+]1ccccc1SCc1ccccc1F` [Example 20, 2-((2-Fluorobenzyl)thio)-1-methyloyridinium chloride] came in with an inhibition in vivo at 30 mg/kg of 76% and an inhibition in vivo at 100 mg/kg of 70%. In assay [1], the change in vivo at 10 mg/kg is -54% and the change in vivo at 30 mg/kg is -90%.
Turning to `C[n+]1ccccc1SCc1ccc([N+](=O)[O-])cc1` [Example 6, 1-Methyl-2-(4-nitrobenzylthio)pyridinium bromide], the inhibition in vivo at 100 mg/kg in assay [3] worked out at 84%. Also, the “Anti-secretory, % change in Vol.” value in assay [1] is “NS”.
In assay [3], `C[n+]1ccc(SCc2cccc(Cl)c2)cc1` [Example 24, 4-((3-Chlorobenzyl)thio)-1-methylpyridinium chloride] yielded an inhibition in vivo at 30 mg/kg of 60% and an inhibition in vivo at 100 mg/kg of 23%. Moreover, the change in vivo at 30 mg/kg in assay [1] is -40%.
With `C[n+]1ccccc1SCc1ccc(Br)cc1` [Example 13, 2-(4-Bromobenzylthio)-1-methylpyridinium bromide], in assay [3], the inhibition in vivo at 30 mg/kg was determined as 73% and the inhibition in vivo at 100 mg/kg is 70%. For the same molecule, in assay [1], the “Anti-secretory, % change in Vol.” value is “NS”.
`OCc1ccc[n+](-c2ccccc2)c1SCc1ccccc1` [Example 30, 2-Benzylthio-3-hydroxymethyl-1-phenylpyridinium bromide] came in with an inhibition in vivo at 100 mg/kg in assay [3] of 71%. The change in vivo at 30 mg/kg in assay [1] was -42%.
For the molecule `Cc1ccc(CSc2cccc[n+]2C)cc1` [Example 10, 1-Methyl-2(4-methylbenzylthio)pyridinium bromide], in assay [1], the change in vivo at 30 mg/kg was -43%.
For the molecule `CCOC(OCC)c1ccc[n+](-c2ccccc2)c1SCc1ccccc1` [Example 19, 2-Benzylthio-3-(diethoxy)methyl-1-phenylpyridinium chloride], the change in vivo at 30 mg/kg in assay [1] was -88%.
Same read-out and setting: the figure for `C[n+]1ccccc1SCc1cc(Cl)cc(Cl)c1` [Example 28, 2-(3,5-Dichlorobenzyl)thio)-1-methylpyridinium chloride] is -55%.
On to `Cc1ccccc1CSc1cccc[n+]1C` [Example 33, 1-Methyl-2-((2-methyl)benzylthio)pyridinium bromide], for which 100 mg/kg produced 73% inhibition in vivo in assay [3]. Also, the “Anti-secretory, % change in Vol.” value in assay [1] is “NS”.
Turning to `C[n+]1ccccc1SCc1ccccc1` [Example 1, 2-Benzylthio-1-methylpyridinium bromide], in assay [3], testing at 30 mg/kg gave an inhibition in vivo of 92% and the inhibition in vivo at 100 mg/kg was found to be 75%. Besides, the change in vivo at 30 mg/kg in assay [1] was -71%.
In the case of `C[n+]1cccc(C=O)c1SCc1ccccc1` [Example 29, 2-Benzylthio-3-formyl-1-methylpyridinium bromide], the inhibition in vivo at 100 mg/kg in assay [3] stood at 71%. Besides, the change in vivo at 30 mg/kg in assay [1] was -48%.
In assay [3], `C[n+]1ccccc1SCc1ccc(F)cc1` [Example 21, 2((4-Fluorobenzyl)thio)-1-methylpyridinium chloride] displayed an inhibition in vivo at 30 mg/kg of 71% and an inhibition in vivo at 100 mg/kg of 82%. The change in vivo at 30 mg/kg in assay [1] is -67%.
On to `c1ccc(CSC2=NCCCC2)cc1` [Example 43, 2-Benzylthio-3,4,5,6-tetrahydropyridine], for which the change in vivo at 30 mg/kg in assay [1] was -48%.
Consider `c1ccc(CSc2ccncc2)cc1` [Example 34, 4-Benzylmercaptopyridine], for which at 100 mg/kg the inhibition in vivo in assay [3] was 64%. The “Anti-secretory, % change in Vol.” value in assay [1] was “NS”.
The matching figures for `C[n+]1ccccc1SCc1cccc([N+](=O)[O-])c1` [Example 32, 1-Methyl-2-((3-nitro)benzylthio)pyridinium chloride]: 73% and “NS”.
In the case of `C[N+]1=C(SCc2ccccc2)CCCC1` [Example 44, 2-Benzylthio-3,4,5,6-tetrahydro-1-methylpyridinium bromide], the change in vivo at 30 mg/kg in assay [1] was -52%.
`Clc1cccc(CSc2ccncc2)c1` [Example 31, 4((3-Chloro)benzylthio)pyridine]: the inhibition in vivo at 100 mg/kg in assay [3] is 62%. In assay [1], the change in vivo at 30 mg/kg was -34%.
Turning to `O=[N+]([O-])c1ccc(C[n+]2ccccc2SCc2ccccc2)cc1` [Example 41, 1-(4-Nitrobenzyl)-2-(benzylthio)-pyridinium bromide], the inhibition in vivo at 100 mg/kg in assay [3] was determined as 69%. In assay [1], the “Anti-secretory, % change in Vol.” value was “NS”.
Regarding `COc1cccc(CSc2cccc[n+]2C)c1` [Example 36, 2-((3-Methoxybenzyl)thio)-1-methylpryridinum chloride], in assay [3], the inhibition in vivo at 100 mg/kg came to 69%. For the same molecule, the “Anti-secretory, % change in Vol.” value in assay [1] is “NS”.

The record behind these values is patent US4304781A, “Treatment of ulcers and hypertension” (John Wyeth & Brother Limited, priority 1978, dated 1981).
